Test results: patent US11807835B2, “Detergent compositions containing a stabilized enzyme by phosphonates” (ECOLAB USA INC., priority 2016, dated 2023)

Legend:
[1] = test system: protease; test: Protease activity retention in detergent use solution (4000 ppm, 5 GPG water; peptidyl substrate, glycine buffer pH 9.0); format: biochemical; conditions: base formula, use solution at 120° F.
In short: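 Detergent use solutions at 4000 ppm in 5 GPG water were held at 120° F with stirring and sampled up to 4 h, with aliquots flash-frozen. Activity was read on a peptidyl substrate in glycine buffer pH 9.0 by absorbance against a calibration curve. Retention is % activity relative to the t=0 sample.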

[2] = test system: lipase; test: Lipase activity retention in detergent use solution (4000 ppm, 5 GPG water; p-nitrophenyl valerate, TRIS buffer pH 8.0); format: biochemical; conditions: base formula
In short: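 Lipase stability was measured in a detergent use solution under conditions mimicking presoak or manual warewash, with stirring in a water bath. Aliquots were taken over time and flash-frozen. Thawed samples were diluted in TRIS buffer at pH 8.0 and assayed with p-nitrophenyl valerate as substrate on a plate reader. Activity is reported as % retained relative to the time=0 sample.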

## Polyamino Polyether Methylene Phosphonic Acid [PAPEMP]
[1]; phosphonate 0.3 wt-%, lower half of Table 4A, time 5
  Relative Protease Enzyme Activity: 107.31%
[1]; phosphonate 0.3 wt-%, lower half of Table 4A, time 20
  Relative Protease Enzyme Activity: 105.51%
[1]; phosphonate 0.3 wt-%, lower half of Table 4A, time 90
  Relative Protease Enzyme Activity: 96.21%
[1]; phosphonate 0.3 wt-%, lower half of Table 4A, time 120
  Relative Protease Enzyme Activity: 99.48%
[1]; phosphonate 0.3 wt-%, lower half of Table 4A, time 150, unit not given
  Relative Protease Enzyme Activity: 93.74%
[1]; phosphonate 0.3 wt-%, lower half of Table 4A, time 210
  Relative Protease Enzyme Activity: 92.79%
[1]; phosphonate 0.3 wt-%, lower half of Table 4A, time '0'
  Relative Protease Enzyme Activity: 100.00%
[1]; phosphonate 0.3 wt-%, lower half of Table 4A, time '40'
  Relative Protease Enzyme Activity: 100.17%
[1]; phosphonate 0.3 wt-%, lower half of Table 4A, time 'Blank'
  Relative Protease Enzyme Activity: 100.00%
[1]; phosphonate 0.3 wt-%, lower half of Table 4A, time row printed '10'
  Relative Protease Enzyme Activity: 109.98%
[1]; phosphonate 0.3 wt-%, lower half of Table 4A, time row printed '60'
  Relative Protease Enzyme Activity: 89.50%
[1]; phosphonate 0.3 wt-%, lower half of Table 4A, time row printed '180'
  Relative Protease Enzyme Activity: 86.60%
[1]; phosphonate 0.6 wt-%, time 0 min
  Relative Protease Enzyme Activity: 100.00%
[1]; phosphonate 0.6 wt-%, time 5 min
  Relative Protease Enzyme Activity: 98.49%
[1]; phosphonate 0.6 wt-%, time 10 min
  Relative Protease Enzyme Activity: 96.69%
[1]; phosphonate 0.6 wt-%, time 20 min
  Relative Protease Enzyme Activity: 93.71%
[1]; phosphonate 0.6 wt-%, time 40 min
  Relative Protease Enzyme Activity: 92.60%
[1]; phosphonate 0.6 wt-%, time 60 min
  Relative Protease Enzyme Activity: 92.60%
[1]; phosphonate 0.6 wt-%, time 90 min
  Relative Protease Enzyme Activity: 86.28%
[1]; phosphonate 0.6 wt-%, time 120 min
  Relative Protease Enzyme Activity: 88.30%
[1]; phosphonate 0.6 wt-%, time 150 min
  Relative Protease Enzyme Activity: 89.66%
[1]; phosphonate 0.6 wt-%, time 180 min
  Relative Protease Enzyme Activity: 86.90%
[1]; phosphonate 0.6 wt-%, time 210 min
  Relative Protease Enzyme Activity: 87.49%
[1]; phosphonate 0.6 wt-%, time 240 min
  Relative Protease Enzyme Activity: 86.53%
[1]; phosphonate at 0.1% elemental phosphorus, time 0 min
  Relative Protease Enzyme Activity: 100.00%
[1]; phosphonate at 0.1% elemental phosphorus, time 5 min
  Relative Protease Enzyme Activity: 95.74%
[1]; phosphonate at 0.1% elemental phosphorus, time 10 min
  Relative Protease Enzyme Activity: 95.47%
[1]; phosphonate at 0.1% elemental phosphorus, time 20 min
  Relative Protease Enzyme Activity: 92.78%
[1]; phosphonate at 0.1% elemental phosphorus, time 40 min
  Relative Protease Enzyme Activity: 86.55%
[1]; phosphonate at 0.1% elemental phosphorus, time 60 min
  Relative Protease Enzyme Activity: 87.49%
[1]; phosphonate at 0.1% elemental phosphorus, time 90 min
  Relative Protease Enzyme Activity: 86.61%
[1]; phosphonate at 0.1% elemental phosphorus, time 120 min
  Relative Protease Enzyme Activity: 86.34%
[1]; phosphonate at 0.1% elemental phosphorus, time 150 min
  Relative Protease Enzyme Activity: 84.01%
[1]; phosphonate at 0.1% elemental phosphorus, time 180 min
  Relative Protease Enzyme Activity: 71.92%
[1]; phosphonate at 0.1% elemental phosphorus, time 210 min
  Relative Protease Enzyme Activity: 80.74%
[1]; phosphonate at 0.1% elemental phosphorus, time 240 min
  Relative Protease Enzyme Activity: 79.08%
[2]; phosphonate 0.3 wt-%, use solution at 120° F., time 0 min
  Relative Lipase Enzyme Activity: 49.99%
[2]; phosphonate 0.3 wt-%, use solution at 120° F., time 5 min
  Relative Lipase Enzyme Activity: 100.00%
[2]; phosphonate 0.3 wt-%, use solution at 120° F., time 10 min
  Relative Lipase Enzyme Activity: 92.85%
[2]; phosphonate 0.3 wt-%, use solution at 120° F., time 20 min
  Relative Lipase Enzyme Activity: 77.81%
[2]; phosphonate 0.3 wt-%, use solution at 120° F., time 40 min
  Relative Lipase Enzyme Activity: 54.24%
[2]; phosphonate 0.3 wt-%, use solution at 120° F., time 60 min
  Relative Lipase Enzyme Activity: 51.08%
[2]; phosphonate 0.3 wt-%, use solution at 120° F., time 90 min
  Relative Lipase Enzyme Activity: 45.80%
[2]; phosphonate 0.3 wt-%, use solution at 120° F., time 120 min
  Relative Lipase Enzyme Activity: 36.29%
[2]; phosphonate 0.3 wt-%, use solution at 120° F., time 150 min
  Relative Lipase Enzyme Activity: 33.14%
[2]; phosphonate 0.3 wt-%, use solution at 120° F., time 180 min
  Relative Lipase Enzyme Activity: 28.25%
[2]; phosphonate 0.3 wt-%, use solution at 120° F., time 210 min
  Relative Lipase Enzyme Activity: 26.56%
[2]; phosphonate 0.3 wt-%, use solution at 120° F., time 240 min
  Relative Lipase Enzyme Activity: 24.03%
[2]; phosphonate 0.6 wt-%, use solution at 120º F., time 0 min
  Relative Lipase Enzyme Activity: 100.00%
[2]; phosphonate 0.6 wt-%, use solution at 120º F., time 5 min
  Relative Lipase Enzyme Activity: 86.04%
[2]; phosphonate 0.6 wt-%, use solution at 120º F., time 10 min
  Relative Lipase Enzyme Activity: 83.42%
[2]; phosphonate 0.6 wt-%, use solution at 120º F., time 20 min
  Relative Lipase Enzyme Activity: 73.22%
[2]; phosphonate 0.6 wt-%, use solution at 120º F., time 40 min
  Relative Lipase Enzyme Activity: 64.86%
[2]; phosphonate 0.6 wt-%, use solution at 120º F., time 60 min
  Relative Lipase Enzyme Activity: 59.26%
[2]; phosphonate 0.6 wt-%, use solution at 120º F., time 90 min
  Relative Lipase Enzyme Activity: 47.33%
[2]; phosphonate 0.6 wt-%, use solution at 120º F., time 120 min
  Relative Lipase Enzyme Activity: 42.05%
[2]; phosphonate 0.6 wt-%, use solution at 120º F., time 150 min
  Relative Lipase Enzyme Activity: 38.58%
[2]; phosphonate 0.6 wt-%, use solution at 120º F., time 180 min
  Relative Lipase Enzyme Activity: 29.04%
[2]; phosphonate 0.6 wt-%, use solution at 120º F., time 210 min
  Relative Lipase Enzyme Activity: 31.37%
[2]; phosphonate 0.6 wt-%, use solution at 120º F., time 240 min
  Relative Lipase Enzyme Activity: 29.77%
[2]; phosphonate at 0.1% elemental phosphorus, at 120º F. or at room temperature (as titled), time 0 min
  Relative Lipase Enzyme Activity: 100.00%
[2]; phosphonate at 0.1% elemental phosphorus, at 120º F. or at room temperature (as titled), time 5 min
  Relative Lipase Enzyme Activity: 91.09%
[2]; phosphonate at 0.1% elemental phosphorus, at 120º F. or at room temperature (as titled), time 10 min
  Relative Lipase Enzyme Activity: 83.66%
[2]; phosphonate at 0.1% elemental phosphorus, at 120º F. or at room temperature (as titled), time 20 min
  Relative Lipase Enzyme Activity: 75.51%
[2]; phosphonate at 0.1% elemental phosphorus, at 120º F. or at room temperature (as titled), time 40 min
  Relative Lipase Enzyme Activity: 58.49%
[2]; phosphonate at 0.1% elemental phosphorus, at 120º F. or at room temperature (as titled), time 60 min
  Relative Lipase Enzyme Activity: 54.87%
[2]; phosphonate at 0.1% elemental phosphorus, at 120º F. or at room temperature (as titled), time 90 min
  Relative Lipase Enzyme Activity: 48.29%
[2]; phosphonate at 0.1% elemental phosphorus, at 120º F. or at room temperature (as titled), time 120 min
  Relative Lipase Enzyme Activity: 42.46%
[2]; phosphonate at 0.1% elemental phosphorus, at 120º F. or at room temperature (as titled), time 150 min
  Relative Lipase Enzyme Activity: 38.07%
[2]; phosphonate at 0.1% elemental phosphorus, at 120º F. or at room temperature (as titled), time 180 min
  Relative Lipase Enzyme Activity: 33.57%
[2]; phosphonate at 0.1% elemental phosphorus, at 120º F. or at room temperature (as titled), time 210 min
  Relative Lipase Enzyme Activity: 31.15%
[2]; phosphonate at 0.1% elemental phosphorus, at 120º F. or at room temperature (as titled), time 240 min
  Relative Lipase Enzyme Activity: 31.01%
